Assay results published in publication PMC11253624, “Unsaturated fatty acid perturbation combats emerging triazole antifungal resistance in the human fungal pathogen Aspergillus fumigatus” (mBio, 2024).
In brackets after ≈: the same amount, converted by molar mass. Where two headings read alike, the source gives them in different places.

Legend:
[1] = Mammalian cell cytotoxicity (CC50); format: cell-based; settings: human, HeLa cells (ATCC CCL-2)
Experimental: (§1) The half-maximal cytotoxic concentration (CC50) of each compound against HeLa cells (ATCC CCL-2) was measured as previously described ([50]). Each assay comprised three technical replicates, and each assay was repeated at least once. The mean values for each biological replicate were averaged, and the CC50 was determined using a four-parameter nonlinear curve fitting algorithm (GraphPad Prism). The average of the CC50s from two biological replicates was calculated and reported.

HeLa cells (ATCC CCL-2) = assay: Mammalian cell cytotoxicity (CC50); format: cell-based
Experimental: as §1

[2] = Liver microsome stability; format: in vitro ADME; settings: mouse; murine liver microsomes, NADPH; read-out: MLMS (t1/2)
Experimental: To examine the potential for first-pass metabolism of analogs in the liver, the stability of analogs in the presence of liver microsome preparations (Eurofins Discovery for human, dog, and rat; Xenotech for mouse) was measured using the method of Kuhnz and […] ([52]). The amount of parent compound remaining after incubation with microsomes in the presence of NADPH over a 30-min time range was measured using a reverse-phase liquid chromatography/mass spectroscopy method that was customized for each compound. Half-lives were calculated using linear regression analysis of several time points.

CYP3A4 = target: T1, CYP3A4 (Homo sapiens, UniProt P08684); assay: CYP450 inhibition; format: in vitro ADME; settings: Human Cytochrome P450 kit (BD Gentest), read-out: Human CYP3A4 inhibition (%INH at 10 µM)
T1 construct: purchased BD Gentest Corp, Woburn, MA, USA
Experimental: Inhibition of the CYP450 enzyme CYP3A4 by each compound at a final concentration of 10 µM was measured using a commercially available Human Cytochrome P450 kit (BD Gentest Corp, Woburn, MA, USA) according to the manufacturer’s instructions.

[3] = Aqueous solubility (nephelometric); format: physicochemical; settings: kinetic from dmso stock
Experimental: The maximum aqueous solubility of each compound was determined using a nephelometric method as described ([51]). Each assay comprised three technical replicates, and each assay was repeated at least once. The reported solubility is the average of at least five technical replicates. […]

Aspergillus fumigatus [4] = assay: FIC checkerboard synergy assay, A. fumigatus; format: cell-based; settings: for MIC: Aspergillus fumigatus
Rhizopus delemar = assay: CLSI-based microbroth dilution MIC, spectrum of activity; format: cell-based; settings: strain 99-880; for MIC: Rhizopus delemar
P. variotii = assay: microbe, parasite or virus in culture; format: cell-based; settings: Paecilomyces variotii; strain MYA-3630
Apophysomyces spp. = assay: CLSI-based microbroth dilution MIC, spectrum of activity; format: cell-based
Blastomyces dematitidis = assay: microbe, parasite or virus in culture; format: cell-based
Coccidioides spp. = assay: microbe, parasite or virus in culture; format: cell-based
Histoplasma capsulatum = assay: microbe, parasite or virus in culture; format: cell-based
Aspergillus flavus = assay: CLSI-based microbroth dilution MIC, spectrum of activity; format: cell-based; settings: for MIC: Aspergillus flavus
Aspergillus terreus = assay: microbe, parasite or virus in culture; format: cell-based; settings: strain AT1
Aspergillus fumigatus [5] = assay: Agar-based colony biofilm assay; format: cell-based; settings: for inhibition at 0.58 µg/mL / inhibition at 1.16 µg/mL: Aspergillus fumigatus; for growth of parental wild-type strain in the presence of MBX-7591 (of untreated): concentration not given
Aspergillus fumigatus [6] = assay: CLSI-based microbroth dilution MIC, A. fumigatus strains
[7] = tested on: A. fumigatus CEA10 reference strain; assay: MIC of HTS hits vs A. fumigatus CEA10, CLSI microbroth dilution, with or without 32 µg/mL fluconazole; settings: for MIC: Aspergillus fumigatus
[8] = read-out: MIC UTHSC, strain DI14-269
[9] = read-out: MIC UTHSC, strain DI14-284
[10] = read-out: MIC UTHSC, strain DI17-143

T1 sequence (P08684 whole entry): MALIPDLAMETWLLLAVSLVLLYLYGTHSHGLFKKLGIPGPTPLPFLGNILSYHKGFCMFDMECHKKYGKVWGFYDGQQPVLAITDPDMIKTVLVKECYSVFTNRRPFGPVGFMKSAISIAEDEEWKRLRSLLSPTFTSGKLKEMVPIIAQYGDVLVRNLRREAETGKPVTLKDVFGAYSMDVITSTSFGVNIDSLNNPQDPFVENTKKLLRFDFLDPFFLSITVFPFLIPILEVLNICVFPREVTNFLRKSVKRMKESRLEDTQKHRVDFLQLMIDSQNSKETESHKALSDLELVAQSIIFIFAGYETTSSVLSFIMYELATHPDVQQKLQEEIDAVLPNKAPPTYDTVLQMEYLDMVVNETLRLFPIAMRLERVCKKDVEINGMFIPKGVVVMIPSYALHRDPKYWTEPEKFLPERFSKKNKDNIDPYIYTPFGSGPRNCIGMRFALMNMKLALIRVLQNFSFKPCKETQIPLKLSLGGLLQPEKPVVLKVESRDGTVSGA

O=C(c1ccsc1)N1CCC(Cc2ccc(COc3ccncc3)cc2)CC1 [MBX-7591]
CC50 [1]: > 100 µM | CC50 (HeLa cells (ATCC CCL-2)): ≥ 100 µM | half-life [2]: 40 min | inhibition at 10 µM (CYP3A4): 89% | solubility [3]: 50 µM (≈ 19.6 µg/mL) | average FIC (Aspergillus fumigatus [4]): 0.5 | MIC (Aspergillus fumigatus [4]; strain 08-19-02-61, alone): 2.45 µg/mL | MIC (Aspergillus fumigatus [4]; strain 08-31-08-91, alone): 4.91 µg/mL | MIC (Aspergillus fumigatus [4]; strain F11628, alone): 2.45 µg/mL | MIC (Aspergillus fumigatus [4]; strain F15390 (caf8), alone): 2.45 µg/mL | FIC value (Aspergillus fumigatus [4]; CEA10, MBX-7591 + 7.81 μg/ml OA): 4 | FIC value (Aspergillus fumigatus [4]; CEA10, MBX-7591 + 15.63 μg/ml OA): 8 | FIC value (Aspergillus fumigatus [4]; CEA10, MBX-7591 + 31.25 μg/ml OA): > 8 | FIC value (Aspergillus fumigatus [4]; strain 08-19-02-61, MBX-7591 + VCZ): 0.5 | FIC value (Aspergillus fumigatus [4]; strain 08-31-08-91, MBX-7591 + VCZ): 0.5 | FIC score (Aspergillus fumigatus [4]; strain CEA10, MBX-7591 + FLC): 0.312 | FIC value (Aspergillus fumigatus [4]; strain CEA10, MBX-7591 + VCZ): 0.375–0.5 | FIC value (Aspergillus fumigatus [4]; strain F11628, MBX-7591 + VCZ): 0.3125–0.375 | FIC value (Aspergillus fumigatus [4]; strain F15390 (caf8), MBX-7591 + VCZ): 0.5 | MIC (Rhizopus delemar): 0.31 µg/mL (≈ 0.79 µM) | MIC (Rhizopus delemar; read-out: MIC UTHSC): ~0.25 µg/mL (≈ 0.637 µM) | MIC UTHSC (Rhizopus delemar): 0.25 µg/mL (≈ 0.637 µM) | MIC (P. variotii): > 32 µg/mL | MIC (Apophysomyces spp.; strain Apo1): 0.5 µg/mL (≈ 1.27 µM) | MIC (Apophysomyces spp.; strain Apo2): 16 µg/mL (≈ 40.8 µM) | MIC (Apophysomyces spp.; strain Apo3): 4 µg/mL (≈ 10.2 µM) | MIC (Blastomyces dematitidis; strain DI19-271): 0.5 µg/mL (≈ 1.27 µM) | MIC (Blastomyces dematitidis; strain DI19-277): 8 µg/mL (≈ 20.4 µM) | MIC (Blastomyces dematitidis; strain DI19-282): 4 µg/mL (≈ 10.2 µM) | MIC (Coccidioides spp.; [8]): > 32 µg/mL | MIC (Coccidioides spp.; [9]): 8 µg/mL (≈ 20.4 µM) | MIC (Coccidioides spp.; [10]): > 32 µg/mL | MIC (Histoplasma capsulatum; [8]): 4 µg/mL (≈ 10.2 µM) | MIC (Histoplasma capsulatum; [9]): 1 µg/mL (≈ 2.55 µM) | MIC (Histoplasma capsulatum; [10]): 0.5 µg/mL (≈ 1.27 µM) | MIC (Aspergillus flavus; ATCC204304, strain ATCC 204304): > 32 µg/mL | MIC (Aspergillus flavus; strain Aflav1): > 32 µg/mL | MIC UTHSC (Aspergillus flavus; strain Aflav2): > 32 µg/mL | MIC (Aspergillus terreus): > 32 µg/mL | inhibition at 0.58 µg/mL (Aspergillus fumigatus [5]; AFS35, 0.58 μg/mL, read-out: growth inhibition): ~61% | inhibition at 1.16 µg/mL (Aspergillus fumigatus [5]; AFS35, 1.16 μg/mL, read-out: growth inhibition): ~70% | inhibition at 0.58 µg/mL (Aspergillus fumigatus [5]; phspA:atrR, 0.58 μg/mL, read-out: growth inhibition): ~9% | inhibition at 1.16 µg/mL (Aspergillus fumigatus [5]; phspA:atrR, 1.16 μg/mL, read-out: growth inhibition): ~19% | inhibition at 1.16 µg/mL (Aspergillus fumigatus [5]; read-out: growth inhibition, hspA-atrR;ΔsrbA, 1.16 µg/mL): ~81% | inhibition at 0.58 µg/mL (Aspergillus fumigatus [5]; read-out: growth inhibition, ΔatrR, 0.58 μg/mL): ~69% | inhibition at 1.16 µg/mL (Aspergillus fumigatus [5]; read-out: growth inhibition, ΔatrR, 1.16 μg/mL): ~86% | inhibition at 0.58 µg/mL (Aspergillus fumigatus [5]; read-out: growth inhibition, ΔsrbA, 0.58 μg/mL): ~62% | inhibition at 1.16 µg/mL (Aspergillus fumigatus [5]; read-out: growth inhibition, ΔsrbA, 1.16 μg/mL): ~72% | inhibition at 1.16 µg/mL (Aspergillus fumigatus [5]; read-out: growth inhibition, ΔsrbAΔatrR, 1.16 µg/mL): ~92% | growth of parental wild-type strain in the presence of MBX-7591 (of untreated) (Aspergillus fumigatus [5]; first of two values): ~ 67% | growth of parental wild-type strain in the presence of MBX-7591 (of untreated) (Aspergillus fumigatus [5]; second of two values): ~ 89% | effect of CO2 levels on A. fumigatus susceptibility (Aspergillus fumigatus [6]): not impacted by CO2 levels | MIC (Aspergillus fumigatus [6]; Aspergillus fumigatus, read-out: MIC (activity against various A. fumigatus strains)): ~2 µg/mL (≈ 5.1 µM) | MIC ([7]; read-out: MBX-7591 MIC vs A. fumigatus (+) FLC): 0.4 µM | MIC ([7]; read-out: MBX-7591 MIC vs A. fumigatus (−) FLC): 1.2 µM | MIC ([7]; read-out: MIC (+Flu)): 5 µM | MIC ([7]; read-out: MIC (-Fluc)): 20 µM | Fold MIC ([7]; MIC-FLC/MIC+FLC, Table S2): 4 | Ratio (MIC −FLC / MIC +FLC) ([7]; Table 1): 3
